One may read the pKa as the negative logarithm of the acid dissociation constant.

Data on 25 molecules can be found in US8114594B2, “Crude biological derivatives competent for nucleic acid detection” (Applied Biosysyems, LLC, priority 2004, dated 2012).

One data set deals with tissue plasminogen activator (t-PA). Kind of data set: Monitoring drug treatment: t-PA mRNA by one step real-time RT-PCR from HeLa cell lysate. It is filed as cell-based, human. As to conditions: lysate 40 cells/μl, PMA 1 nM, 24 hours. As to the method:
HeLa cells were seeded DME media with 10% FBS in each of three wells in a 12-well tissue culture plate (Nalge Nunc International, Cat. #150628) at 125,000 cells/well. After an overnight incubation, phorbol myristate acetate (PMA) was added to final concentrations of 10, 1 and 0 nM in the growth medium. The cells were incubated at 37° C. for 24 hours. The medium was removed and the cells washed with PBS. The cells were incubated with 0.05% trypsin in 0.53 mM EDTA for 10 minutes at 37° C. to detach the cells. Cells were counted and concentration was determined. Cells were centrifuged at 800×g for 5 minutes. The medium was removed and the cells were washed once with PBS. Each cell pellet was suspended in PBS to obtain a stock solution of 10000 cells/μl. A five-fold serial dilution of the stock solution with PBS was carried out to give 10000, 2000 and 400 cells/0.10 μl of each dilution was added to 90 μl of Buffer at room temperature such that the final cell concentrations in the lysate were 1000, 200 and 40 cells/μl. The samples were gently shaken at room temperature (˜21° C.) for 1 to 2 min. As in EXAMPLE 1, cell lysate of 30% of the final reaction volume was added to a one step real-time RT-PCR reaction with primers and TaqMan probe for tissue plasminogen activator (t-PA) and 18S rRNA (EXAMPLE 8). The t-PA primer and probe sequences were as follows: Forward primer, 5′-[…]-3′ (SEQ ID NO. 34); Reverse primer, 5′-[…]-3′ (SEQ ID NO. 35); TaqMan Probe: 5′-(FAM)-[…]-(TAMRA)-3′ (SEQ ID NO. 36).
On the technique in general: Quantitative PCR measures a nucleic acid by following its amplification.
As for `CCCCCCCCCCCCCC(=O)O[C@@H]1[C@@H](C)[C@@]2(O)[C@@H](C=C(CO)C[C@]3(O)C(=O)C(C)=C[C@@H]23)[C@@H]2C(C)(C)[C@]12OC(C)=O` [PMA, phorbol myristate acetate], the “t-PA (fold increase compared to 0 nM PMA)” value was 16 fold.

Staying with this data set, now noted: lysate 40 cells/μl, PMA 10 nM, 24 hours.
For `CCCCCCCCCCCCCC(=O)O[C@@H]1[C@@H](C)[C@@]2(O)[C@@H](C=C(CO)C[C@]3(O)C(=O)C(C)=C[C@@H]23)[C@@H]2C(C)(C)[C@]12OC(C)=O` [PMA, phorbol myristate acetate], the “t-PA (fold increase compared to 0 nM PMA)” value was determined as 147 fold.

Staying with this data set, now noted: lysate 200 cells/μl, PMA 1 nM, 24 hours.
`CCCCCCCCCCCCCC(=O)O[C@@H]1[C@@H](C)[C@@]2(O)[C@@H](C=C(CO)C[C@]3(O)C(=O)C(C)=C[C@@H]23)[C@@H]2C(C)(C)[C@]12OC(C)=O` [PMA, phorbol myristate acetate]: the “t-PA (fold increase compared to 0 nM PMA)” value stood at 9 fold.

The same data set, now with this note: lysate 200 cells/μl, PMA 10 nM, 24 hours.
As for `CCCCCCCCCCCCCC(=O)O[C@@H]1[C@@H](C)[C@@]2(O)[C@@H](C=C(CO)C[C@]3(O)C(=O)C(C)=C[C@@H]23)[C@@H]2C(C)(C)[C@]12OC(C)=O` [PMA, phorbol myristate acetate], the “t-PA (fold increase compared to 0 nM PMA)” value was found to be 62 fold.

Staying with this data set, now noted: lysate 1000 cells/μl, PMA 1 nM, 24 hours.
For `CCCCCCCCCCCCCC(=O)O[C@@H]1[C@@H](C)[C@@]2(O)[C@@H](C=C(CO)C[C@]3(O)C(=O)C(C)=C[C@@H]23)[C@@H]2C(C)(C)[C@]12OC(C)=O` [PMA, phorbol myristate acetate], the “t-PA (fold increase compared to 0 nM PMA)” value stood at 8 fold.

The data set is the same for the next values; noted with them: lysate 1000 cells/μl, PMA 10 nM, 24 hours.
Consider `CCCCCCCCCCCCCC(=O)O[C@@H]1[C@@H](C)[C@@]2(O)[C@@H](C=C(CO)C[C@]3(O)C(=O)C(C)=C[C@@H]23)[C@@H]2C(C)(C)[C@]12OC(C)=O` [PMA, phorbol myristate acetate], for which the “t-PA (fold increase compared to 0 nM PMA)” value is 39 fold.

System in a further data set: not given
Assay: not given
As to conditions: cited from earlier work.
Regarding `Cc1cc(C)c(C)c(C(=O)O)c1C` [2,3,5,6-tetramethylbenzoic acid], the pKa is on record as 3.5. As to `Cc1cc(C)c(C(=O)O)c(C)c1` [2,4,6-trimethylbenzoic acid], the pKa is 3.4. Turning to `CC(C)(N)C(=O)O` [2-amino-2-methylpropionic acid], the pKa is reported as 2.4. Turning to `CCC(C)C(N)C(=O)O` (stereo not drawn) [2-amino-3-methylpentanoic acid], the pKa is 2.3. Regarding `Nc1ccccc1S(=O)(=O)O` [2-aminobenzenesulfonic acid], the pKa is 2.5. As for `CCCC(N)C(=O)O` (stereo not drawn) [2-aminopentanoic acid], the pKa is reported as 2.3.

In the case of `CC(C)(C#N)C(=O)O` [2-cyano-2-methylpropionic acid], the pKa is on record as 2.4. Turning to `CCC(CC)C(=O)O` [2-ethylbutyric acid], the pKa is on record as 4.8. For `O=C(O)c1ccco1` [2-furancarboxylic acid], the pKa is 3.2.

With `O=C(O)c1c(O)ccc2ccccc12` [2-hydroxy-1-naphthoic acid], the pKa is 3.3. With `Nc1cccc(S(=O)(=O)O)c1` [3-aminobenzenesulfonic acid], the pKa was 3.7. `O=C(O)c1cccc(Br)c1` [3-bromobenzoic acid]: the pKa is reported as 3.8.

Consider `CC(C)(C)c1cccc(C(=O)O)c1` [3-tert-butylbenzoic acid], for which the pKa is recorded as 4.2. Regarding `Nc1ccc(S(=O)(=O)O)cc1` [4-aminobenzenesulfonic acid], the pKa is reported as 3.2. On to `O=C(O)c1ccc([N+](=O)[O-])cc1` [4-nitrobenzoic acid], for which the pKa is listed as 3.4. `CC(=O)N[C@@H](C)C(=O)O` [N-acetylalanine]: the pKa was 3.7. `CC(=O)NCC(=O)O` [N-acetylglycine]: the pKa is given as 3.7. Consider `C[C@H](NC(N)=O)C(=O)O` [N-carbamoylalanine], for which the pKa is 3.9. `CCC(=O)NCC(=O)O` [N-propionylglycine]: the pKa is recorded as 3.7.

Consider `O=C(O)C#CCl` [chloropropynoic acid], for which the pKa is listed as 1.85.

For `N#CCC(=O)O` [cyanoacetic acid], the pKa is reported as 2.5. For `CC[C@H](C)[C@H](N)C(=O)O` [isoleucine], the pKa is 2.3. As for `CC(C)C(C(=O)O)C(=O)O` [isopropylmalonic acid], the pKa was 2.4. Consider `CC(=O)NCCC(=O)O` [β-acetylaminopropionic acid], for which the pKa is given as 4.4.
